Peptide text beside a SMILES is read from it.

The target in assay [1] is T1, 14-3-3ε heterodimerization (Homo sapiens, UniProt P62258).
T1 construct: endogenous in cells; host or cells: SCC12B.2
T1 sequence (P62258 1-255): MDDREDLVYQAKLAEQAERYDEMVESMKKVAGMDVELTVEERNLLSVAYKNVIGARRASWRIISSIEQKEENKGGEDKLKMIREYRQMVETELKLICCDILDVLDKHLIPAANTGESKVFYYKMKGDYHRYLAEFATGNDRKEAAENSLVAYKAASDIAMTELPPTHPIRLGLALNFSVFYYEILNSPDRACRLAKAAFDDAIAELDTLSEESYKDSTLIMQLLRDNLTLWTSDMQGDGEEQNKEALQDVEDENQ
In words: Co-immunoprecipitation / immunoblot of 14-3-3ε heterodimerization. Format: cell-based. As to conditions: SCC12B.2 cells, 20 μM, 48 hours, vs vehicle. On the procedure:
Co-Immunoprecipitation was performed using a Dynabeads Protein G Immunoprecipitation kit (Life Technologies, Carlsbad, Calif., USA). Beads were coupled to antibodies targeting 14-3-3ε (Fisher Scientific, Waltham, Mass., USA) or Akt (Thermo Fisher) at a ratio of 7 μg of antibody for every 1 mg of beads according to the manufacturers protocol. SCC12B.2 cells were treated with vehicle (20 mM Tris buffer, pH 7.5) or fresh ES1P2 targeting peptide daily at the IC50 concentration for 48 hours in Opti-MEM I Reduced Serum Medium (Invitrogen) and collected by trypsinization. […]
Protein was collected by either standard whole-cell lysis using ice-cold radioimmunoprecipitation assay (RIPA) lysis buffer supplemented with protease (Roche Life Scientific) and phosphatase inhibitors (NaF, Na3VO4) or by nuclear/cytosolic extraction using the NE-PER Nuclear and Cytoplasmic Protein Extraction Reagent Kit according to the manufacturer's protocol (Pierce, Rockford, Ill., USA). […] Protein concentration was assessed with the Bradford assay. […] Bands were detected using horseradish peroxidase-conjugated secondary antibodies (IgG mouse or rabbit) (Cell Signaling) and visualized using western lightning plus chemiluminescent reagent (MidSci, Valley Park, Mo., USA) and signal read on a Chemidoc XRS Molecular Imager (Bio-Rad Laboratories, Hercules, Calif., USA).

For assay [2], the target named is T2, 14-3-3ε binding to CDC25A (Homo sapiens, UniProt P62258).
T2 construct: endogenous in cells; host or cells: SCC12B.2
T2 sequence (P62258 1-255): T1 sequence (P62258 1-255)
In words: Co-immunoprecipitation / immunoblot of CDC25A bound to 14-3-3ε. Type of assay: cell-based. As to conditions: SCC12B.2 cells; for amount of CDC25A on immunoblots of immunoprecipitated 14-3-3ε: pS 30 μM, pT printed 2004, 48 hours, vs vehicle, P≤0.05. On the procedure: Co-Immunoprecipitation (Co-IP) was performed using a Dynabeads Protein G Immunoprecipitation kit (Life Technologies, Carlsbad, Calif., USA). Beads were coupled to antibodies targeting 14-3-3ε (Fisher Scientific, Waltham, Mass., USA) or CDC25A (Santa Cruz Biotechnology, Dallas, Tex., USA) at a ratio of 7 μg of antibody for every 1 mg of beads according to the manufacturers protocol. SCC12B.2 cells were treated with vehicle (20 mM Tris buffer, pH 7.5) or fresh peptide (pS or pT) daily at the IC50 concentration for 48 hours in Opti-MEM I Reduced Serum Medium (Invitrogen) and collected by trypsinization. One hundred mg of cells were lysed in 1×IP buffer supplemented with 100 mM sodium chloride, 2 mM dithiothreitol, 1 mM magnesium chloride and protease/phosphatase inhibitors. Immunoprecipitation reactions were carried out using 1.5 mg of antibody-coupled beads incubated with 100 mg of cell lysate at 4° C. for 30 minutes. Negative controls were immunoprecipitation reactions using beads coupled to IgG isotype control antibody (rabbit), and whole lysate from immunoprecipitation input was loaded directly onto a gel was used as a positive control.
Protein was collected by either standard whole-cell lysis using ice-cold radioimmunoprecipitation assay (RIPA) lysis buffer supplemented with protease (Roche Life Scientific) and phosphatase inhibitors (NaF, Na3VO4) or by nuclear/cytosolic extraction using the NE-PER Nuclear and Cytoplasmic Protein Extraction Reagent Kit according to the manufacturer's protocol (Pierce, Rockford, Ill., USA). Tissue protein was extracted by using a tissue grinder to lyse cells in 100 μL of RIPA lysis buffer for every 1 mg of tissue. […] Protein concentration was assessed with the Bradford assay. […] Bands were detected using horseradish peroxidase-conjugated secondary antibodies (IgG mouse or rabbit) (Cell Signaling) and visualized using western lightning plus chemiluminescent reagent (MidSci, Valley Park, Mo., USA) and signal read on a Chemidoc XRS Molecular Imager (Bio-Rad Laboratories, Hercules, Calif., USA).
(In general: Immunoblotting shows a protein as a band on a membrane.)

Take `NCCCC[C@H](NC(=O)[C@H](Cc1c[nH]c2ccccc12)NC(=O)[C@H](Cc1ccc(O)cc1)NC(=O)[C@@H](N)Cc1c[nH]c2ccccc12)C(N)=O` [ES1P2, Trp-Tyr-Trp-Lys-NH2] (H-WYWK-NH2): in assay [1], the 14-3-3ε heterodimerization entry is listed as “reduces 14-3 3ε heterodimerization”.
For `CSCC[C@H](NC(=O)[C@H](CCCNC(=N)N)NC(=O)[C@@H]1CCCN1C(=O)[C@H](C)NC(=O)[C@H](COP(=O)(O)O)NC(=O)[C@H](CC(N)=O)NC(=O)[C@H](CCC(N)=O)NC(=O)[C@H](CCCNC(=N)N)NC(=O)[C@H](CCC(N)=O)NC(=O)[C@@H](NC(C)=O)[C@@H](C)O)C(=O)N[C@@H](CC(C)C)C(=O)N[C@@H](CO)C(=O)N[C@@H](CO)C(=O)N[C@@H](CC(N)=O)C(N)=O` [pS, Ac-Thr-Gln-Arg-Gln-Asn-Ser-(PO3^2−)-Ala-Pro-Arg-Met-Leu-Ser-Ser-Asn-NH2] (HELM PEPTIDE1{[ac].T.Q.R.Q.N.[O=C([C@H](COP(=O)(O)O)N[*:1])[*:2]].A.P.R.M.L.S.S.N.[am]}$$$$V2.0), the “14-3-3ε precipitation, pS-treated compared to pT-treated samples” value in assay [2] (48 hours) was “less 14-3-3ε precipitation”. The “amount of CDC25A on immunoblots of immunoprecipitated 14-3-3ε” value in assay [2] is recorded as “decreases the amount of CDC25A”.
In the case of `CC(=O)N[C@@H](CCCNC(=N)N)C(=O)N[C@H](C(=O)N[C@@H](CCCCN)C(=O)N[C@@H](CO)C(=O)N[C@@H](CCCNC(=N)N)C(=O)N[C@H](C(=O)N[C@@H](Cc1c[nH]c2ccccc12)C(=O)N[C@@H](C)C(=O)NCC(=O)N[C@@H](CCC(=O)O)C(=O)N[C@@H](CCCCN)C(=O)N[C@@H](CO)C(=O)N[C@@H](CCCCN)C(=O)N[C@@H](CCCNC(=N)N)C(N)=O)[C@@H](C)OP(=O)(O)O)[C@@H](C)O` [pT, Ac-Arg-Thr-Lys-Ser-Arg-Thr(PO3^2−)-Trp-Ala-Gly-Glu-Lys-Ser-Lys-Arg-NH2] (HELM PEPTIDE1{[ac].R.T.K.S.R.[C[C@@H](OP(=O)(O)O)[C@H](N[*:1])C(=O)[*:2]].W.A.G.E.K.S.K.R.[am]}$$$$V2.0), the “amount of CDC25A on immunoblots of immunoprecipitated 14-3-3ε” value in assay [2] was “decreases the amount of CDC25A”.

The values are drawn from patent US11685766B2, “14-3-3 targeting peptides for cancer treatment” (Creighton University, priority 2019, dated 2023).
